Source: paper PMC5958115, “A novel small molecule chaperone of rod opsin and its potential therapy for retinal degeneration” (Nature Communications, 2018)
Where two headings read alike, the source gives them in different places.

Tests used:
mouse P23H opsin = biological target: T1, mouse P23H opsin (Mus musculus, UniProt P15409, P23H); test: High-content imaging analysis of P23H opsin immunostaining in NIH3T3-(P23H opsin/GFP) cells; format: cell-based
T1 construct: expressed in transfected cells
Experimental: To characterize the effect of active compounds on the localization of P23H-mutant opsin in mammalian cells, an image-based assay was used with cells immunostained for WT or P23H-mutant opsin protein[18]. Briefly, NIH3T3-(P23H opsin/GFP) or NIH3T3-(WT-opsin/GFP) cells were seeded at 5000 cells per well in a 384-well cell-carrier plate (PerkinElmer) and incubated at 37 °C with 5% CO2 for 2 h. Cells were treated with compounds as described for the β-Gal fragment complementation assay and incubated in assay medium for 24 h. The assay medium then was aspirated, and cells were fixed with 4% paraformaldehyde at 20 µL per well for 20 min at RT. Cells were immunostained in one of two ways: cell membranes were either permeabilized with 0.1% Triton X-100 for 15 min or left intact and then were incubated with 10% goat serum (Life Technologies). To detect opsin on the cell plasma membrane only, intact cells were immunostained with 20 µL per well of 20 µg mL^−1 B6-30 anti-rhodopsin antibody that recognizes the N-terminal epitope on the extracellular side of rhodopsin. To detect total opsin, cells were permeabilized with Triton X-100 and immunostained with 50 µg mL^−1 1D4 anti-rhodopsin antibody specific for the C-terminal epitope on the intracellular side of rhodopsin. Opsin immunostaining was visualized by incubating cells with 5 µg mL^−1 Cy3-conjugated goat anti-mouse IgG antibody. Three washes with phosphate-buffered saline (PBS: 10 mM Na2HPO4, 1.8 mM KH2PO4, pH 7.4, 137 mM NaCl, and 2.7 mM KCl) were performed between each step of incubation with antibody. In the last wash with PBS, DAPI was added to each well at 300 nM. Fluorescence images were obtained with the Operetta High Content Imaging System (PerkinElmer) using a ×20 long objective. Five fields were taken of each well for cell images using three channels for fluorescence: GFP (100 ms), Cy3 (300 ms), and DAPI (50 ms). Images were analyzed with Acapella software from the Columbus data storage and analysis system (PerkinElmer)[18]. For cells immunostained with opsin on the non-permeabilized cell membrane only, an average of total fluorescence intensity of Cy3 per cell was used to quantify opsin in each well of the 384-well plate. For cells immunostained with opsin in permeabilized whole cells, an average ratio of Cy3 intensity on the cell plasma membrane (PM) to that of the entire cell (opsin ratio PM-to-total) was calculated for each well of a 384-well plate to quantify opsin transport to the plasma membrane. The plasma membrane was defined within ± 5% of the cell border.

bovine opsin = biological target: T2, bovine opsin (Bos taurus, UniProt P02699); test: Ligand-binding assay by Trp fluorescence quenching, opsin in ROS disc membranes; details: 20 °C, mean of three biological repeats ± s.d.; for EC50: read-out: EC50 of Trp fluorescence quenching at 330 nm (ΔF/F0)
T2 construct: ROS membranes were isolated from bovine retinas under dim red light; from tissue; host or cells: bovine retina, rod outer segment (ROS) disc membranes, bleached with hydroxylamine
T2 sequence (P02699 whole entry): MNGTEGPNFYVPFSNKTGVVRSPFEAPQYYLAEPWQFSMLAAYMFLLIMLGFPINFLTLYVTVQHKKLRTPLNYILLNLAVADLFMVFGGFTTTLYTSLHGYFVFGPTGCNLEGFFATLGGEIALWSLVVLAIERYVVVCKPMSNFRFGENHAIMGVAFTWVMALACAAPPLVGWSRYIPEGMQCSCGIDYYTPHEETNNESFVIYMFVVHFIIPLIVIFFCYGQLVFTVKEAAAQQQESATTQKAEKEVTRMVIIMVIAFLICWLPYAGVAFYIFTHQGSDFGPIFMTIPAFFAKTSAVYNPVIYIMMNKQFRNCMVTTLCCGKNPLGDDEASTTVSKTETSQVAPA
Experimental: ROS membranes were isolated from bovine retinas under dim red light. To remove membrane associated proteins, ROS membranes were washed with a hypotonic buffer composed of 5 mM bis-tris propane (BTP) and 1 mM EDTA, pH 7.5, followed by gentle homogenization with subsequent centrifugation at 25,000×g for 30 min. This procedure was repeated four times. The final membrane pellet was suspended in 10 mM sodium phosphate buffer, pH 7.0, and 50 mM hydroxylamine to a 3 mg mL^−1 concentration of rhodopsin, placed on ice and illuminated with a 150 Watt bulb for 30 min. Membranes were pelleted by centrifugation at 16,000×g for 5 min and then washed four times with 10 mM sodium phosphate buffer, pH 7.0, and 2% bovine serum albumin followed by 4 washes with 10 mM sodium phosphate buffer, pH 7.0, and two washes with 20 mM BTP, pH 7.5, and 100 mM NaCl. The concentration of opsin was measured with a UV–visible spectrophotometer and quantified using the absorption coefficient ε280 nm = 81,200 M^−1 cm^−1[64].
Emission spectra were recorded with a PerkinElmer L55 Luminescence Spectrophotometer at 20 °C between 300 and 450 nm after excitation at 295 nm, with excitation and emission slit bands set at 5 and 10 nm, respectively. Changes in Trp fluorescence (ΔF/F0; where ΔF is the difference between the initial Trp fluorescence recorded at 330 nm (F0) and Trp fluorescence recorded at 330 nm at a specified YC-001 concentration) were plotted as a function of the ligand concentration. Binding curves were fitted by the Hill function using Origin software for each compound and the EC50 was calculated. All experimental data were corrected for background and self-absorption of excitation and emission light (inner filter effect).

[1] = ratio of P23H rod opsin fluorescence on plasma membrane to whole cell
[2] = ratio of P23H rod opsin fluorescence on plasma membrane to whole cell, read-out: Immunostaining HCS MEM-Total ratio EC50
[3] = cell-surface immunostaining, non-permeabilized, Fig. 2j, read-out: EC50, opsin on the plasma membrane (Opsin INT)

SMILES	Immunostaining HCS MEM-Total ratio Max (fit) (mouse P23H opsin; [1])	EC50 (mouse P23H opsin; [2]) [nM]	EC50 of Trp fluorescence quenching at 330 nm (ΔF/F0) (bovine opsin)	A1 (low plateau), Opsin INT (mouse P23H opsin; Fig. 2j)	A2 (high plateau), Opsin INT (mouse P23H opsin; Fig. 2j)	A1 (low plateau), Opsin ratio PM-to-total (mouse P23H opsin; Fig. 2l)	A2 (high plateau), Opsin ratio PM-to-total (mouse P23H opsin; Fig. 2l)	A1 (low plateau), Opsin ratio ER-to-total (mouse P23H opsin; Fig. 2n)	A2 (high plateau), Opsin ratio ER-to-total (mouse P23H opsin; Fig. 2n)	EC50 (mouse P23H opsin; [3]) [nM]	EC50 (mouse P23H opsin; whole-cell immunostaining, Fig. 2n, read-out: EC50, Opsin ratio ER-to-total) [nM]	EC50 (bovine opsin) [nM]	EC50 (mouse P23H opsin; whole-cell immunostaining, Fig. 2l, read-out: EC50, Opsin ratio PM-to-total) [nM]
O=C(CCCCCN1C(=O)c2cccc3cccc(c23)C1=O)NO [Scriptaid, reference compound]	0.070	380	did not affect Trp fluorescence										
O=C1OCC(c2ccc(Cl)s2)=C1c1cccs1 [YC-001]	0.030	2750		218	270	0.172	0.202	0.236	0.248	3220	2140	980 ± 50	
CC1=C(/C=C/C(C)=C\C=C\C(C)=C\C=O)C(C)(C)CCC1 [9-cis-retinal, reference compound]	0.019			219	275	0.167	0.186	0.240	0.255	377		1200 ± 100	1210
